Data as given in patent US20260138958A1, “SUBSTITUTED N-PHENYLURACILS AND SALTS THEREOF, AND USE THEREOF AS HERBICIDAL ACTIVE SUBSTANCES” (Bayer Aktiengesellschaft, priority 2022, published 2026).

Tests used:
Assay type in all cases: in vivo
[1] = test system: Abutilon theophrasti (ABUTH); assay: Post-emergence herbicidal action, greenhouse pot test
Method: (§1) Seeds of monocotyledonous and dicotyledonous weeds and crop plants were placed in sandy loam in plastic or wood-fibre pots, covered with soil and cultivated in a greenhouse under controlled growth conditions. 2 to 3 weeks after sowing, the test plants were treated at the one-leaf stage. The compounds of the invention, formulated in the form of wettable powders (WP) or as emulsion concentrates (EC), were then sprayed onto the green parts of the plants as aqueous suspension or emulsion with addition of 0.5% additive at a water application rate of 600 l/ha (converted). After the test plants had been kept in the greenhouse under optimum growth conditions for about 3 weeks, the activity of the preparations was rated visually in comparison to untreated controls. For example, 100% activity=the plants have died, 0% activity=like control plants.

Bassia scoparia (KCHSC) = assay: as above
Method: as §1

[2] = test system: Pharbitis purpurea (PHBPU); assay: as above
Method: as §1

Veronica persica (VERPE) = assay: as above
Method: as §1

[3] = test system: Alopecurus myosuroides (ALOMY); assay: as above
Method: as §1

[4] = test system: Tripleurospermum inodorum (MATIN); assay: as above
Method: as §1

[5] = test system: Digitaria sanguinalis (DIGSA); assay: as above
Method: as §1

[6] = test system: Amaranthus retroflexus (AMARE); assay: as above
Method: as §1

Lolium rigidum (LOLRI) = assay: as above
Method: as §1

Setaria viridis (SETVI) = assay: as above
Method: as §1

Viola tricolor (VIOTR) = assay: as above
Method: as §1

[7] = test system: Polygonum convolvulus (POLCO); assay: as above
Method: as §1

[8] = test system: Echinochloa crus-galli (ECHCG); assay: as above
Method: as §1

[9] = test system: Triticum aestivum (TRZAS); assay: Post-emergence crop plant compatibility, greenhouse pot test; details: crop plant, post-emergence, 1.25 g/ha
Method: as §1
The observed effects on selected crop plants are reported here in comparison to the untreated controls (values in %).

SMILES | Post-emergence effect at 5 g/ha against ABUTH in % [1] [%] | Post-emergence effect at 20 g/ha against ABUTH in % [1] [%] | Post-emergence effect at 1.25 g/ha against KCHSC in % (Bassia scoparia (KCHSC)) [%] | Post-emergence effect at 5 g/ha against KCHSC in % (Bassia scoparia (KCHSC)) [%] | Post-emergence effect at 20 g/ha against KCHSC in % (Bassia scoparia (KCHSC)) [%] | Post-emergence effect at 5 g/ha against PHBPU in % [2] [%] | Post-emergence effect at 20 g/ha against PHBPU in % [2] [%] | Post-emergence effect at 1.25 g/ha against VERPE in % (Veronica persica (VERPE)) [%] | Post-emergence effect at 5 g/ha against VERPE in % (Veronica persica (VERPE)) [%] | Post-emergence effect at 20 g/ha against VERPE in % (Veronica persica (VERPE)) [%] | Post-emergence effect at 20 g/ha against ALOMY in % [3] [%] | Post-emergence effect at 20 g/ha against MATIN in % [4] [%] | Post-emergence effect at 5 g/ha against DIGSA in % [5] [%] | Post-emergence effect at 20 g/ha against DIGSA in % [5] [%] | Post-emergence effect at 1.25 g/ha against AMARE in % [6] [%] | Post-emergence effect at 5 g/ha against AMARE in % [6] [%] | Post-emergence effect at 20 g/ha against AMARE in % [6] [%] | Post-emergence effect at 20 g/ha against LOLRI in % (Lolium rigidum (LOLRI)) [%] | Post-emergence effect at 1.25 g/ha against SETVI in % (Setaria viridis (SETVI)) [%] | Post-emergence effect at 5 g/ha against SETVI in % (Setaria viridis (SETVI)) [%] | also measured
Cn1c(C(F)(F)F)cc(=O)n(-c2cc(Oc3ccccc3OCC(=O)OC(C#N)C3CC3)c(Cl)cc2F)c1=O (centres unmarked) [I.7-4] | 100 | 100 | 100 | 100 | 100 | 100 | 100 | 100 | 100 | 100 | 100 | 100 | 100 | 100 | 100 | 100 | 100 | 100 | 100 | 100 | Post-emergence effect at 1.25 g/ha against ABUTH in % [1]: 100%; Post-emergence effect at 1.25 g/ha against PHBPU in % [2]: 80%; Post-emergence effect at 5 g/ha against ALOMY in % [3]: 80%; Post-emergence effect at 5 g/ha against MATIN in % [4]: 100%; Post-emergence effect at 20 g/ha against SETVI in % (Setaria viridis (SETVI)): 100%; Post-emergence effect at 1.25 g/ha against VIOTR in % (Viola tricolor (VIOTR)): 100%; Post-emergence effect at 5 g/ha against VIOTR in % (Viola tricolor (VIOTR)): 100%; Post-emergence effect at 20 g/ha against VIOTR in % (Viola tricolor (VIOTR)): 100%; Post-emergence effect at 5 g/ha against POLCO in % [7]: 100%; Post-emergence effect at 20 g/ha against POLCO in % [7]: 100%; Post-emergence effect at 5 g/ha against ECHCG in % [8]: 100%; Post-emergence effect at 20 g/ha against ECHCG in % [8]: 100%; Post-emergence effect at 1.25 g/ha against TRZAS in % [9]: 20%
Cn1c(C(F)(F)F)cc(=O)n(-c2cc(Oc3ccccc3OCC(=O)OCC3(F)CC3)c(Cl)cc2F)c1=O [I.7-6] | 100 | 100 | 100 | 100 | 100 | 100 | 100 | 100 | 100 | 100 | 100 | 100 | 100 | 100 | 100 | 100 | 100 | 80 | 100 | 100 | Post-emergence effect at 1.25 g/ha against ABUTH in % [1]: 100%; Post-emergence effect at 1.25 g/ha against ALOMY in % ([3]; 1.25 g/ha): 80%; Post-emergence effect at 5 g/ha against ALOMY in % [3]: 100%; Post-emergence effect at 1.25 g/ha against DIGSA in % [5]: 100%; Post-emergence effect at 20 g/ha against SETVI in % (Setaria viridis (SETVI)): 100%; Post-emergence effect at 1.25 g/ha against VIOTR in % (Viola tricolor (VIOTR)): 100%; Post-emergence effect at 5 g/ha against VIOTR in % (Viola tricolor (VIOTR)): 100%; Post-emergence effect at 20 g/ha against VIOTR in % (Viola tricolor (VIOTR)): 100%; Post-emergence effect at 5 g/ha against POLCO in % [7]: 100%; Post-emergence effect at 20 g/ha against POLCO in % [7]: 100%; Post-emergence effect at 5 g/ha against ECHCG in % [8]: 100%; Post-emergence effect at 20 g/ha against ECHCG in % [8]: 100%; Post-emergence effect at 1.25 g/ha against TRZAS in % [9]: 20%
Cn1c(C(F)(F)F)cc(=O)n(-c2cc(Oc3ccccc3OCC(=O)OCC3(C#N)CC3)c(Cl)cc2F)c1=O [I.7-7] | 100 | 100 | 100 | 100 | 100 | 100 | 100 | 100 | 100 | 100 | 100 | 100 | 100 | 100 | 100 | 100 | 100 | 100 | 100 | 100 | Post-emergence effect at 1.25 g/ha against PHBPU in % [2]: 100%; Post-emergence effect at 5 g/ha against ALOMY in % [3]: 80%; Post-emergence effect at 5 g/ha against MATIN in % [4]: 100%; Post-emergence effect at 20 g/ha against SETVI in % (Setaria viridis (SETVI)): 100%; Post-emergence effect at 1.25 g/ha against VIOTR in % (Viola tricolor (VIOTR)): 100%; Post-emergence effect at 5 g/ha against VIOTR in % (Viola tricolor (VIOTR)): 100%; Post-emergence effect at 20 g/ha against VIOTR in % (Viola tricolor (VIOTR)): 100%; Post-emergence effect at 5 g/ha against POLCO in % [7]: 100%; Post-emergence effect at 20 g/ha against POLCO in % [7]: 100%; Post-emergence effect at 5 g/ha against ECHCG in % [8]: 100%; Post-emergence effect at 20 g/ha against ECHCG in % [8]: 100%; Post-emergence effect at 1.25 g/ha against TRZAS in % [9]: 10%
Cn1c(C(F)(F)F)cc(=O)n(-c2cc(Oc3ccccc3OCC(=O)OCC3CC3(F)F)c(Cl)cc2F)c1=O (centres unmarked) [I.7-8] | 100 | 100 | 100 | 100 | 100 | 100 | 100 | 100 | 100 | 100 | 100 | 100 | 100 | 100 | 100 | 100 | 100 | 80 | 100 | 100 | Post-emergence effect at 1.25 g/ha against ABUTH in % [1]: 100%; Post-emergence effect at 1.25 g/ha against PHBPU in % [2]: 80%; Post-emergence effect at 5 g/ha against ALOMY in % [3]: 80%; Post-emergence effect at 5 g/ha against MATIN in % [4]: 100%; Post-emergence effect at 1.25 g/ha against DIGSA in % [5]: 100%; Post-emergence effect at 20 g/ha against SETVI in % (Setaria viridis (SETVI)): 100%; Post-emergence effect at 1.25 g/ha against VIOTR in % (Viola tricolor (VIOTR)): 100%; Post-emergence effect at 5 g/ha against VIOTR in % (Viola tricolor (VIOTR)): 100%; Post-emergence effect at 20 g/ha against VIOTR in % (Viola tricolor (VIOTR)): 100%; Post-emergence effect at 5 g/ha against POLCO in % [7]: 100%; Post-emergence effect at 20 g/ha against POLCO in % [7]: 100%; Post-emergence effect at 5 g/ha against ECHCG in % [8]: 100%; Post-emergence effect at 20 g/ha against ECHCG in % [8]: 100%; Post-emergence effect at 1.25 g/ha against TRZAS in % [9]: 20%
Cn1c(C(F)(F)F)cc(=O)n(-c2cc(Oc3ccccc3OCC(=O)OCC3CC3(C)C)c(Cl)cc2F)c1=O (centres unmarked) [I.7-9] | 100 | 100 | 90 | 100 | 100 | 100 | 100 | 90 | 100 | 100 | 100 | 100 | 100 | 100 | 100 | 100 | 100 | 90 | 100 | 100 | Post-emergence effect at 1.25 g/ha against ABUTH in % [1]: 100%; Post-emergence effect at 1.25 g/ha against PHBPU in % [2]: 100%; Post-emergence effect at 1.25 g/ha against DIGSA in % [5]: 100%; Post-emergence effect at 20 g/ha against SETVI in % (Setaria viridis (SETVI)): 100%; Post-emergence effect at 1.25 g/ha against VIOTR in % (Viola tricolor (VIOTR)): 100%; Post-emergence effect at 5 g/ha against VIOTR in % (Viola tricolor (VIOTR)): 100%; Post-emergence effect at 20 g/ha against VIOTR in % (Viola tricolor (VIOTR)): 100%; Post-emergence effect at 20 g/ha against POLCO in % [7]: 100%; Post-emergence effect at 1.25 g/ha against ECHCG in % ([8]; 1.25 g/ha): 80%; Post-emergence effect at 5 g/ha against ECHCG in % [8]: 100%; Post-emergence effect at 20 g/ha against ECHCG in % [8]: 100%; Post-emergence effect at 1.25 g/ha against TRZAS in % [9]: 20%
